# From article PMC4841536, “Characterization of the Anti-HCV Activities of the New Cyclophilin Inhibitor STG-175” (PLoS ONE, 2016)
# Read-outs that look alike come from different tables or passages of the source.
# Legend:
# [1] = tested on: subgenomic Con1 (GT1b) replicon in Huh-7 cells; format: cell-based, hepatitis C virus; conditions: for passage at which resistant variants emerged (CypI comparison): Fig 3C
# Method: Huh-7 cell expressing subgenomic Con1 (GT1b) replicon were seeded in a 10 cm dish at a density of 3 × 10^5 cells per culture flask in complete DMEM (with G418) with STG-175 or selected drugs. Cells were grown until they reached 90% confluence, trypsinized and re-seeded at the same cell concentration in a new 10-cm dish with the same drug concentration. Cells were passaged 22 times in the presence of drugs. At each passage, sample of cells were collected, RNA extracted according to the manufacturer's instructions and analyzed by RT-PCR for HCV RNA levels.
# (§1) Fig 3 Replicon clearance, replication rebound and resistance analyses. […] Then drugs were removed to allow viral replication rebound to occur. At each passage, samples of cells were collected, RNA extracted and analyzed by RT-PCR for HCV RNA levels. B. Emergence of resistance: Con1 replicon Huh-7 cells were passaged 22 times in the absence or presence of STG-175 or selected DAAs. At each passage, sample of cells were collected, RNA extracted and analyzed by RT-PCR for HCV RNA levels. C. […] Data are expressed as number of HCV RNA copies per cell. […] Data are expressed as mean of relative light units and calculated EC50s are presented. […] E. Degree of resistance of D320E and Y321N Con1 variants: Left panel. Wild-type (WT), D320E and D320/Y321N NS5A Con1 RNA were electroporated into Huh7.5.1 cells and replication monitored over 8 days by quantifying the levels of intracellular HCV RNA. Right panel. Same as just above except that increasing concentrations of STG-175 were added at the time of the electroporation. […] STG-175 is taken as the substance from the printed x-axis title 'STG-175 in Log nM'.
# We then examined the development of resistance to STG-175. GT1b Con1 sub-genomic replicon cells were grown in the presence of STG-175 (0.25 and 1 μM), telaprevir (2.5 and 10 μM), boceprevir (2.5 and 10 μM), daclatasvir 100 pM and 1 nM) or a combination of STG-175 (0.25 μM) with either telaprevir (2.5 μM), boceprevir (2.5 μM) or daclatasvir (100 pM) for 22 successive passages. At each passage, fresh drug was added and a sample of cells was taken to quantify HCV RNA levels by RT-qPCR.
# [2] = tested on: wild-type Con1 GT1b replicon; test: Electroporated Con1 RNA replication in Huh7.5.1 cells (RT-qPCR), wild-type; format: cell-based; conditions: Hepatitis C virus
# From the text: The GT1b subgenomic firefly luciferase reporter replicon pFK-I389/NS3–3 was provided by R. Bartenschlager. The GT1B subgenomic NS3, NS5A and NS5B mutants were created via homologous recombination using the In-Fusion HD Cloning kit (Clontech) as we described previously. […] The in vitro transcription of wild-type and mutant Con1 RNA was accomplished using the T7 MEGAscript kit (Ambion) by following the manufacturer’s instructions. In vitro-transcribed RNAs were introduced into Huh7.5.1 cells by electroporation. Trypsinized cells were washed twice and resuspended in phosphate-buffered saline (PBS) (calcium-free and magnesium-free) at 1x 10^7 cells per ml. Ten micrograms of RNA for each mutant was mixed with 0.4 mL of cells in a 4-mm cuvette, and a Bio-Rad Gene Pulser system was used to deliver a single pulse at 0.27 kV, 100 ohms, and 960 μF. Cells were then plated in 12-well dishes. RNA transfection efficiency and HCV subgenomic replication were assessed by reverse transcription-quantitative PCR (RT-qPCR) and presented as genome equivalents (GE) per microgram of total RNA as described previously. We measured by RT-qPCR the replication of wild-type, STG-175-, NS5Ai-, NS3i- and NS5Bi-resistant mutants in the presence of increasing concentrations of SGT-175, daclatasvir, telaprevir, boceprevir and sofosbuvir over a period of 8 days.
# as §1
# To determine whether the D320E and Y321N substitutions truly render HCV resistant to STG-175, they were introduced into wild-type Con1 replicon as we described previously. Introduction of the substitutions was verified by sequencing. In vitro-transcribed wild-type, D320E and D320E/Y321N HCV RNAs were then electroporated into Huh7.5.1 cells and viral replication assessed by RT-qPCR and presented as GE per microgram of total RNA as we described previously. […] We then analyzed the replication of wild-type, D320E and D320E/Y321N in the presence of increasing concentrations of SGT-175 over a period of 8 days.
# Fig 5 Cross-resistance analyses.
structure (smiles),measurement,setting,value
CC=CCC(C)C(O)C1C(=O)NC(CC)C(=O)N(C)C(CSCCCCO)C(=O)N(C)C(CC(C)(C)O)C(=O)NC(C(C)C)C(=O)N(C)C(CC(C)C)C(=O)NC(C)C(=O)NC(C)C(=O)N(C)C(CC(C)C)C(=O)N(C)C(CC(C)C)C(=O)N(C)C(C(C)C)C(=O)N1C (stereo not shown) [STG-175],cell culture passages required to detect emergence of resistant replicon colonies,[1],> 16 passages
same,passage at which resistant variants emerged (CypI comparison),[1]; 0.25 μM of drug selection,18 passage
same,passage at which resistance began,"[1]; 1 μM drug pressure, first account (Fig 3B)",19 passage
same,passage at which resistant variants emerged (CypI comparison),[1]; 1 μM of drug selection,21 passage
same,EC50,"[2]; Huh-7.5.1, 144 h, read-out: EC50, WT replicon",0.0357 µM
same,EC50,"[2]; Huh-7.5.1, 192 h, read-out: EC50, WT replicon",0.0344 µM
same,EC50,"[2]; Huh-7.5.1, 192 h, read-out: EC50 GT1b WT",0.0106 µM
